Results reported in PubChem BioAssay AID1845208 (Molecular Pharmacology Branch, DTP, NCI, 2023).

Tested on: NCI-H196 SCLC complex tumor spheroid viability
Test: Anticancer human tumor NCI-H196 cell line growth inhibition;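 further: spheroids exposed to compounds for 7 days before readout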;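 on viability, T/C: 100% = DMSO vehicle control wells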
Settings: for IC50: curve of first compound; for viability, T/C: stronger effect = lower value
Outline: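 Complex tumor spheroids combined malignant cells with endothelial cells and mesenchymal stem cells. DNA-damaging drugs and DNA repair inhibitors were tested alone and in combination, at half-log dilutions down from clinical Cmax (top 10 microM if Cmax unknown), 0.25% DMSO final.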

In the case of `O=C(c1cc(Cc2n[nH]c(=O)c3ccccc23)ccc1F)N1CCN(C(=O)C2CC2)CC1` + COc1cc2c(cc1O)CCNC21CSC2c3c(OC(C)=O)c(C)c4c(c3C(COC1=O)N1C(O)C3Cc5cc(C)c(OC)c(O)c5C(C21)N3C)OCO4, the IC50 (second compound 30 pM) is reported as over 30 µM, the IC50 (second compound 94.9 pM) is reported as over 30 µM and the IC50 (second compound 0.0003 µM) is reported as over 30 µM. The IC50 (second compound 0.000949 µM) was over 30 µM, the IC50 (second compound 0.003 µM) was under 0.0949 µM and the viability, T/C (second compound 30 pM, first compound 0.0949 µM) was 107%. It also gave a viability, T/C (second compound 30 pM, first compound 0.3 µM) of 105%, a viability, T/C (second compound 30 pM, first compound 0.949 µM) of 101% and a viability, T/C (second compound 30 pM, first compound 3 µM) of 98.9%. For the same molecule, the viability, T/C (second compound 30 pM, first compound 9.49 µM) was 85.5%, the viability, T/C (second compound 30 pM, first compound 30 µM) was 67.2% and the viability, T/C (second compound 94.9 pM, first compound 0.0949 µM) was 104%. It also gave a viability, T/C (second compound 94.9 pM, first compound 0.3 µM) of 102%, a viability, T/C (second compound 94.9 pM, first compound 0.949 µM) of 102% and a viability, T/C (second compound 94.9 pM, first compound 3 µM) of 93.7%. It also gave a viability, T/C (second compound 94.9 pM, first compound 9.49 µM) of 91.5%, a viability, T/C (second compound 94.9 pM, first compound 30 µM) of 62.7% and a viability, T/C (second compound 0.0003 µM, first compound 0.0949 µM) of 99.6%. For the same molecule, the viability, T/C (second compound 0.0003 µM, first compound 0.3 µM) was 105%, the viability, T/C (second compound 0.0003 µM, first compound 0.949 µM) was 99.5% and the viability, T/C (second compound 0.0003 µM, first compound 3 µM) was 92%. The viability, T/C (second compound 0.0003 µM, first compound 9.49 µM) was 84.3%, the viability, T/C (second compound 0.0003 µM, first compound 30 µM) was 66% and the viability, T/C (second compound 0.000949 µM, first compound 0.0949 µM) was 86.4%. It also gave a viability, T/C (second compound 0.000949 µM, first compound 0.3 µM) of 86.9%, a viability, T/C (second compound 0.000949 µM, first compound 0.949 µM) of 80.7% and a viability, T/C (second compound 0.000949 µM, first compound 3 µM) of 78.5%. It also gave a viability, T/C (second compound 0.000949 µM, first compound 9.49 µM) of 68.9%, a viability, T/C (second compound 0.000949 µM, first compound 30 µM) of 54.4% and a viability, T/C (second compound 0.003 µM, first compound 0.0949 µM) of 3.15%. For the same molecule, the viability, T/C (second compound 0.003 µM, first compound 0.3 µM) was 6.44%, the viability, T/C (second compound 0.003 µM, first compound 0.949 µM) was 3.39% and the viability, T/C (second compound 0.003 µM, first compound 3 µM) was 1.87%. It also gave a viability, T/C (second compound 0.003 µM, first compound 9.49 µM) of 0.89% and a viability, T/C (second compound 0.003 µM, first compound 30 µM) of 1.4%.

With `CC(C)n1c(=O)n(C)c2cnc3cc(F)c(-c4ccc(OCCCN5CCCCC5)nc4)cc3c21` + COc1cc2c(cc1O)CCNC21CSC2c3c(OC(C)=O)c(C)c4c(c3C(COC1=O)N1C(O)C3Cc5cc(C)c(OC)c(O)c5C(C21)N3C)OCO4 the IC50 (second compound 30 pM) was over 10 µM, the IC50 (second compound 94.9 pM) was over 10 µM and the IC50 (second compound 0.0003 µM) was over 10 µM. It also gave an IC50 (second compound 0.000949 µM) of over 10 µM, an IC50 (second compound 0.003 µM) of under 0.0316 µM and a viability, T/C (second compound 30 pM, first compound 0.0316 µM) of 104%. It also gave a viability, T/C (second compound 30 pM, first compound 0.1 µM) of 106%, a viability, T/C (second compound 30 pM, first compound 0.316 µM) of 106% and a viability, T/C (second compound 30 pM, first compound 1 µM) of 104%. For the same molecule, the viability, T/C (second compound 30 pM, first compound 3.16 µM) was 114%, the viability, T/C (second compound 30 pM, first compound 10 µM) was 107% and the viability, T/C (second compound 94.9 pM, first compound 0.0316 µM) was 106%. For the same molecule, the viability, T/C (second compound 94.9 pM, first compound 0.1 µM) was 107%, the viability, T/C (second compound 94.9 pM, first compound 0.316 µM) was 105% and the viability, T/C (second compound 94.9 pM, first compound 1 µM) was 107%. The viability, T/C (second compound 94.9 pM, first compound 3.16 µM) was 123%, the viability, T/C (second compound 94.9 pM, first compound 10 µM) was 112% and the viability, T/C (second compound 0.0003 µM, first compound 0.0316 µM) was 103%. The viability, T/C (second compound 0.0003 µM, first compound 0.1 µM) was 112%, the viability, T/C (second compound 0.0003 µM, first compound 0.316 µM) was 111% and the viability, T/C (second compound 0.0003 µM, first compound 1 µM) was 112%. The viability, T/C (second compound 0.0003 µM, first compound 3.16 µM) was 116%, the viability, T/C (second compound 0.0003 µM, first compound 10 µM) was 104% and the viability, T/C (second compound 0.000949 µM, first compound 0.0316 µM) was 93.8%. The viability, T/C (second compound 0.000949 µM, first compound 0.1 µM) was 97.7%, the viability, T/C (second compound 0.000949 µM, first compound 0.316 µM) was 92.6% and the viability, T/C (second compound 0.000949 µM, first compound 1 µM) was 93.7%. It also gave a viability, T/C (second compound 0.000949 µM, first compound 3.16 µM) of 106%, a viability, T/C (second compound 0.000949 µM, first compound 10 µM) of 95.2% and a viability, T/C (second compound 0.003 µM, first compound 0.0316 µM) of 7%. For the same molecule, the viability, T/C (second compound 0.003 µM, first compound 0.1 µM) was 6.41%, the viability, T/C (second compound 0.003 µM, first compound 0.316 µM) was 9.42% and the viability, T/C (second compound 0.003 µM, first compound 1 µM) was 3.31%. It also gave a viability, T/C (second compound 0.003 µM, first compound 3.16 µM) of 2.99% and a viability, T/C (second compound 0.003 µM, first compound 10 µM) of 3.29%.

For `CC1COCCN1c1cc(-c2ccnn2C)c2ccnc(-c3ccn[nH]3)c2n1` (stereo not given) + Cn1nnc2c(C(N)=O)ncn2c1=O, the IC50 (second compound 1 µM) was 2.82 µM, the IC50 (second compound 3.16 µM) was 2.15 µM and the IC50 (second compound 10 µM) was 7.34 µM. For the same molecule, the IC50 (second compound 31.6 µM) was 4.44 µM, the IC50 (second compound 100 µM) was 3.49 µM and the viability, T/C (second compound 1 µM, first compound 0.0316 µM) was 84.8%. It also gave a viability, T/C (second compound 1 µM, first compound 0.1 µM) of 77.5%, a viability, T/C (second compound 1 µM, first compound 0.316 µM) of 61.2% and a viability, T/C (second compound 1 µM, first compound 1 µM) of 59.5%. The viability, T/C (second compound 1 µM, first compound 3.16 µM) was 48.1%, the viability, T/C (second compound 1 µM, first compound 10 µM) was 44.4% and the viability, T/C (second compound 3.16 µM, first compound 0.0316 µM) was 92.6%. The viability, T/C (second compound 3.16 µM, first compound 0.1 µM) was 77.7%, the viability, T/C (second compound 3.16 µM, first compound 0.316 µM) was 62.2% and the viability, T/C (second compound 3.16 µM, first compound 1 µM) was 56.7%. For the same molecule, the viability, T/C (second compound 3.16 µM, first compound 3.16 µM) was 44.1%, the viability, T/C (second compound 3.16 µM, first compound 10 µM) was 47.3% and the viability, T/C (second compound 10 µM, first compound 0.0316 µM) was 98.3%. The viability, T/C (second compound 10 µM, first compound 0.1 µM) was 85.4%, the viability, T/C (second compound 10 µM, first compound 0.316 µM) was 75.7% and the viability, T/C (second compound 10 µM, first compound 1 µM) was 58.2%. For the same molecule, the viability, T/C (second compound 10 µM, first compound 3.16 µM) was 54%, the viability, T/C (second compound 10 µM, first compound 10 µM) was 48.8% and the viability, T/C (second compound 31.6 µM, first compound 0.0316 µM) was 95.2%. It also gave a viability, T/C (second compound 31.6 µM, first compound 0.1 µM) of 85.5%, a viability, T/C (second compound 31.6 µM, first compound 0.316 µM) of 71.4% and a viability, T/C (second compound 31.6 µM, first compound 1 µM) of 59.6%. It also gave a viability, T/C (second compound 31.6 µM, first compound 3.16 µM) of 51.6%, a viability, T/C (second compound 31.6 µM, first compound 10 µM) of 46.6% and a viability, T/C (second compound 100 µM, first compound 0.0316 µM) of 90.3%. The viability, T/C (second compound 100 µM, first compound 0.1 µM) was 76.8%, the viability, T/C (second compound 100 µM, first compound 0.316 µM) was 69.9% and the viability, T/C (second compound 100 µM, first compound 1 µM) was 57.9%. The viability, T/C (second compound 100 µM, first compound 3.16 µM) was 49.7% and the viability, T/C (second compound 100 µM, first compound 10 µM) was 44.8%.
